Data published in publication PMC10743086, “Immunofluorescence-Based Assay for High-Throughput Analysis of Multidrug Resistance Markers in Non-Small Cell Lung Carcinoma Patient-Derived Cells” (Diagnostics, 2023).

Experiments:
Assay type in all cases: cell-based, human
NCI-H460/R cells = assay: Cytotoxicity by immunofluorescence cell scoring (cell counts), multidrug-resistant NSCLC cell line; conditions: 24 h treatment
Source text: Human non-small cell lung carcinoma cells (NCI-H460) were purchased from the American Type Culture Collection (Rockville, MD, USA), and normal embryonic lung fibroblasts (MRC-5) were purchased from the European Collection of Authenticated Cell Cultures (Salisbury, UK). Multidrug-resistant NCI-H460/R cells overexpressing ABCB1 were selected from the NCI-H460 cells after selective pressure with doxorubicin [21]. All the cell lines were maintained in MEM medium (Sigma-Aldrich Chemie GmbH, Taufkirchen, Germany) supplemented with 10% FBS, 2 mM L-glutamine, and antibiotic-antimycotic solution. All the cell lines were maintained at 37 °C in a humidified atmosphere with 5% CO2.
(§1) Vinorelbine and pemetrexed were purchased from Selleckchem (Houston, TX, USA). Carboplatin, cisplatin, docetaxel, etoposide, gemcitabine, gefitinib, and paclitaxel were purchased from Sigma-Aldrich Chemie GmbH (Taufkirchen, Germany). The cisplatin, carboplatin, and gemcitabine were dissolved in sterile water, while the etoposide, docetaxel, vinorelbine, paclitaxel, gefitinib, and pemetrexed were dissolved in DMSO and stored at −20 °C. Before treatment, all the stock solutions were freshly diluted in sterile water.
(§2) The compounds were administered 48 h after seeding. The treatment lasted 24 h.
(§3) The immunofluorescence assay for the quantification of MDR markers was optimized to distinguish cancer cells from stromal cells using a cytokeratin 8/18 (CK8/18) antibody cocktail. The cells were fixed with 4% paraformaldehyde for 20 min at RT and washed three times with PBS using the Wellwash Versa microplate washer (Thermo Fisher Scientific, Waltham, MA, USA). The cells were then blocked with 2% bovine serum albumin (BSA) in PBS for 1 h at RT. […] Co-immunostaining with antibodies against MDR markers was performed to detect the presence of ABCB1, ABCC1, and ABCG2 in both the cancer and stromal cells. […] The secondary antibodies were incubated with the cells at RT for 2 h in the dark. […] Finally, the cells were washed three times with PBS and stored at 4 °C in the dark before imaging.
(§4) The fluorescently labeled cells were imaged using the ImageXpress Pico Automated Cell Imaging System (Molecular Devices, San Jose, CA, USA) with a 4x objective after determining the appropriate exposure time for each illumination filter. Analysis of the obtained images was performed using CellReporterXpress software v. 2.8.2.669 (Molecular Devices). The cytotoxicity of the compounds was determined using the Cell Scoring Analysis Protocol. […] Expression of MDR markers was determined using the Multi-Wavelength Cell Scoring Analysis Protocol.

[1] = system: ABCB1 expression in MRC-5 cells; assay: Immunofluorescence assay of MDR marker ABCB1 expression; conditions: five concentrations, 24 h
Description: as §1, §2, §3, §4

[2] = system: ABCB1 expression in NCI-H460 cells; assay: as above; conditions: five concentrations, 24 h
Description: as §1, §2, §3, §4

[3] = system: ABCB1 expression in NCI-H460/R cells; assay: as above; conditions: five concentrations, 24 h
Description: as §1, §2, §3, §4

[4] = system: Cancer cells (CK8/18+) of patient-derived NSCLC cultures; assay: Cytotoxicity in patient-derived NSCLC cultures, cancer cells; conditions: 7 days treatment
Description: (§5) Tissue samples were collected during surgery, and the NSCLC diagnosis, histological grade, stage, necrosis, and lymph node invasion status were determined by histopathological analysis. […] The surgical specimens were placed in a sterile tube containing antibiotic-antimycotic solution (Sigma-Aldrich Chemie GmbH, Taufkirchen, Germany) and immediately transported to the research laboratory for further processing.
(§6) Upon arrival, the tissue was manually chopped with a surgical blade in a Petri dish under sterile conditions. The samples were cut into 3–5 mm pieces and further dissociated using the Tumor Dissociation Kit (Miltenyi Biotec, Bergisch Gladbach, Germany). The Tumor Dissociation Kit was used to dissociate the cells from the tumor tissue according to the manufacturer’s instructions. The samples were incubated in a 37 °C orbital shaker (KS 4000 ic control, IKA, Königswinter, Germany) at 300 rpm for 90 min. After incubation, the dissociated tissue was placed in DMEM/Ham’s F12 (1:3 ratio) growth medium supplemented with 5% fetal bovine serum (Corning, NY, USA), antibiotic-antimycotic solution, 4 µg/mL hydrocortisone (Sigma-Aldrich Chemie GmbH, Taufkirchen, Germany), 1 µg/mL insulin (Sigma-Aldrich Chemie GmbH, Taufkirchen, Germany), 10 ng/mL epidermal growth factor (BioLegend, San Diego, CA, USA), and 24 µg/mL adenine (Sigma-Aldrich Chemie GmbH, Taufkirchen, Germany). The DMEM and Ham’s F12 growth media were purchased from Sigma-Aldrich Chemie GmbH (Taufkirchen, Germany).
(§7) The dissociated tissue was cultured in T-25 cell culture flasks until cell attachment was observed before the medium was replaced. If no cell attachment was achieved within 7 days, the sample was discarded. Successful patient-derived cultures were maintained at 37 °C in a humidified atmosphere with 5% CO2 and grown to confluence before undergoing further experiments. […] Partial trypsinization was performed by detaching the fibroblast-like cells with 1 mL of 0.05% trypsin for 1 min at 37 °C, followed by 2 min at room temperature (RT).
as §1
(§8) The primary cells were seeded in black, clear bottom 384-well cell culture microplates (Thermo Fisher Scientific, Waltham, MA, USA) in 50 µL of cell growth medium at a density of 1000 cells per well. The compounds were administered 72 h after seeding. The treatment lasted 7 days.
as §3

[5] = system: Non-cancer cells (CK8/18-) of patient-derived NSCLC cultures; assay: Cytotoxicity in patient-derived NSCLC cultures, non-cancer cells; conditions: 7 days treatment
Description: as §5, §6, §7, §1, §8, §3

[6] = system: ABCC1 expression in cancer cells (CK8/18+); assay: Immunofluorescence assay of ABCC1 expression in patient-derived NSCLC cultures; conditions: 7 days
Description: as §5, §6, §7, §1, §8, §3

[7] = system: ABCG2 expression in cancer cells (CK8/18+); assay: Immunofluorescence assay of ABCG2 expression in patient-derived NSCLC cultures; conditions: 7 days
Description: as §5, §6, §7, §1, §8, §3

[8] = NCI-H460/R (co-culture with MRC-5)
[9] = culture TR58, cancer cells (CK8/18+)
[10] = culture TR64, cancer cells (CK8/18+)
[11] = culture TR65, cancer cells (CK8/18+)
[12] = culture TR84, cancer cells (CK8/18+)
[13] = culture TR87, cancer cells (CK8/18+)

In the case of `N.N.[Cl][Pt][Cl]` [Cisplatin, cisplatin], the IC50 (NCI-H460/R cells; [8]) is reported as 5.6 µM, the IC50 (NCI-H460/R cells; NCI-H460/R monoculture) is reported as 5.33 µM and the “ABCB1 Expression” value ([1]; MRC-5 (co-culture with NCI-H460)) is reported as “no change”. For the same molecule, the “ABCB1 Expression” value ([1]; MRC-5 (co-culture with NCI-H460/R)) was “no change”, the “ABCB1 Expression” value ([1]; MRC-5 monoculture) was “no change” and the “ABCB1 Expression” value ([2]; NCI-H460 (co-culture with MRC-5)) was “no change”. For the same molecule, the “ABCB1 Expression” value ([2]; NCI-H460 monoculture) was “increase (An increase in ABCB1 expression of at least 20% at a minimum of one concentration is shown in the table.)”, the “ABCB1 Expression” value [3, 8] was “no change” and the “ABCB1 Expression” value ([3]; NCI-H460/R monoculture) was “no change”. The IC50 [4, 9] was 5.78 µM, the IC50 [4, 10] was 6.07 µM and the IC50 [4, 11] was 14.6 µM. It also gave an IC50 [4, 12] of 2.11 µM, an IC50 [4, 13] of 4.82 µM and an IC50 ([5]; culture TR58, non-cancer cells (CK8/18-)) of 5.1 µM. It also gave an IC50 ([5]; culture TR64, non-cancer cells (CK8/18-)) of 8.26 µM, an IC50 ([5]; culture TR65, non-cancer cells (CK8/18-)) of 1.21 µM and an IC50 ([5]; culture TR84, non-cancer cells (CK8/18-)) of 0.789 µM. For the same molecule, the IC50 ([5]; culture TR87, non-cancer cells (CK8/18-)) was 3.38 µM, the ABCC1 expression [6, 9] was “no change” and the ABCC1 expression [6, 10] was “increase (An increase in ABCB1, ABCC1, or ABCG2 expression of at least 20% at a minimum of one concentration is shown in the table.)”. For the same molecule, the ABCC1 expression [6, 11] was “increase (An increase in ABCB1, ABCC1, or ABCG2 expression of at least 20% at a minimum of one concentration is shown in the table.)”, the ABCC1 expression [6, 12] was “increase (An increase in ABCB1, ABCC1, or ABCG2 expression of at least 20% at a minimum of one concentration is shown in the table.)” and the ABCC1 expression [6, 13] was “increase (An increase in ABCB1, ABCC1, or ABCG2 expression of at least 20% at a minimum of one concentration is shown in the table.)”. The ABCG2 expression [7, 9] was “increase (An increase in ABCB1, ABCC1, or ABCG2 expression of at least 20% at a minimum of one concentration is shown in the table.)”, the ABCG2 expression [7, 10] was “increase (An increase in ABCB1, ABCC1, or ABCG2 expression of at least 20% at a minimum of one concentration is shown in the table.)” and the ABCG2 expression [7, 11] was “increase (An increase in ABCB1, ABCC1, or ABCG2 expression of at least 20% at a minimum of one concentration is shown in the table.)”. The ABCG2 expression [7, 12] was “increase (An increase in ABCB1, ABCC1, or ABCG2 expression of at least 20% at a minimum of one concentration is shown in the table.)” and the ABCG2 expression [7, 13] was “increase (An increase in ABCB1, ABCC1, or ABCG2 expression of at least 20% at a minimum of one concentration is shown in the table.)”.
